Assay results as given in patent publication US10701931B2, “Mosquito activating formulations” (Commonwealth Scientific and Industrial Research Organisation, priority 2015, dated 2020).
“And” between values parts separate entries of the source, which are not always exact repeats. Identical values can stand only once.

Assays:
[1] = test system: Anopheles farauti antennae; assay: Electroantennogram (EAG), non bloodfed females; settings: chemicals at 1/10 concentrations, CO2 5%; n=5
Protocol: (§1) In order to assess Y-tube olfactometry experiments and field trials using an independent technique and to investigate the physiological basis of the observed activation and attraction behaviour, electroanntennogram (EAG) and electropalpogram (EPG) studies were performed on A. stephensi female mosquitoes. EAG studies were also performed on Anopheles farauti, Culex annulirostris and Aedes aegypti female mosquitoes.
(§2) Five to eight days Anopheles stephensi, two to fourteen days old Culex annulirostris and Aedes aegypti as well as four days old Anopheles faraulti non-blooded females, fed on 10% sucrose ad-libitum and then starved for >12 hours, were used. Mosquito head was excised and placed on the reference electrode coated with electrode gel (Parker Laboratories, Orange, N.J.). The distal end of the antennae or palp (<0.5 mm), cut to ensure a good electrical contact, were carefully placed on the recording electrode (Syntech, Germany). Signals were fed to a 10× amplifier and processed with IDAC 4 and PC-based interface and EAG software package (Syntech, Germany).
(§3) Thus 1-octen-3-ol was used in the EAG analysis as a positive control with thio compounds, (E and Z)-1-methylthio-1-propene, 3-methyl-thio-1-propanol, ally methyl sulphide, and carbon dioxide (5%) and mineral oil (negative control). Pure chemicals were diluted in mineral oil to a 10 times v/v stock solution, from which decadal dilutions were made. A 10 μl aliquot of each solution was applied to a filter paper strip (1×3.5 cm; Whatman No. 4, Fisher Scientific) and the solvent was evaporated under a fume hood before inserting the paper strip into 5 ml disposable plastic syringe (Terumo syringes). A 500 ms pulse (5 ml/s) was delivered by stimulus controller CS-55 (Syntech, Germany) to deliver chemical stimulants to a humidified continuous air flow (10 ml/s) over the electrophysiolgical preparation. The chemicals were tested randomly and applied with 0.5-1 min intervals between stimulations.
(§4) Initial screening was performed using a 10 times dilution (1/10, v/v) source dose solution. Then 1-methylthio-1-propene and 1-octen-3-ol were selected for further dose-response study. A minimum of five mosquitoes were tested for each compound to calculate the average EAG amplitude±standard error (SE).

[2] = test system: Anopheles stephensi antennae; assay: Electroantennogram (EAG), non bloodfed females; settings: chemicals at 1/10 concentrations, CO2 5%; n=6
Protocol: as §1, §2, §3, §4

[3] = test system: Anopheles stephensi maxillary palps; assay: Electropalpogram (EPG), non bloodfed females; settings: chemicals at 1/10 concentrations, CO2 5%; n=7
Protocol: as §1, §2, §3, §4

[4] = test system: female Anopheles funestus antennae; settings: cited from earlier work
C. annulirostis antennae = assay: Electroantennogram (EAG), non bloodfed females; set-up: species or system Culex annulirostris; settings: n=5
Protocol: as §1, §2
(§5) Thus 1-octen-3-ol was used in the EAG analysis as a positive control with thio compounds, (E and Z)-1-methylthio-1-propene, 3-methyl-thio-1-propanol, ally methyl sulphide, and carbon dioxide (5%) and mineral oil (negative control). […]

[5] = test system: female An. gambiae antennae; settings: cited from earlier work
[6] = test system: Anopheles farauti maxillary palps; assay: Electropalpogram (EPG), non bloodfed females; settings: chemicals at 1/10 concentrations, CO2 5%; n=6
Anopheles stephensi [7] = assay: Y-tube olfactometer, measurement of attraction against CO2/1-octen-3-ol positive control; type: in vivo
Protocol: Attraction to these components was compared to a standard “positive control” known to elicit a directional response in An. stephensi mosquitoes placed in an olfactometer. The standard used as a positive control is a mix of compressed air, 5% CO2 and an octenol source. Unpaired t-test was used to test for the differences in means for all data sets presented.
The MR4 strain of An. stephensi (New Delhi, India) was maintained at 27° C., 70% RH, 12:12 L:D and 30 min dawn/dusk periods). 4 to 7 day old female mosquitoes, that had never received a blood meal, were used in experiments. Mosquitoes were maintained on 10% sugar solution ad libitum but starved for 12 hr prior to testing.
The Y tube olfactometer is made entirely of glass and consists of a release chamber, the Y tube itself, and a trap chamber attached to each arm (FIG. 1). Each trap chamber is divided in two by a fine glass filter. On the far side of those filters, the trap chambers can connect to charcoal filters or to gas bags or gas cylinders. Air is pulled through the olfactometer by connecting the release chamber to a vacuum tap which vents the contents of the tube. Standard air flow (0.4 L/minute) is maintained using a 0.1-1.2 LPM flow meter (John Morris Pty, LTD). The air volume of the Y-tube is approximately 1 litre and is therefore replaced every 2.5 minutes.
1 μl 10^−4% 1-octen-3-ol in mineral oil (Sigma Aldrich) was spotted on 1 cm^2 Whatman filter paper.
5% CO2 by volume was added to a 10 L FlexFilm gasbag (SKC Inc.) of compressed air.
When a CO2/1-octen-3-ol mix was required, 5% CO2 was delivered by connecting the gas bag to the requisite Y tube arm and placing the 1-octen-3-ol treated filter paper between the gasbag inlet and the glass filter of the trap chamber.
All experiments were run under PC2 quarantine conditions, at 27° C., 70% RH, under infrared light. Observers were always in the same position during the tests, at the trap chamber end of the olfactometer, between the 2 arms of the Y tube.
Using an aspirator, 25-30 starved female An. stephensi were introduced into the release chamber (FIG. 1).
After each test, mosquitoes were carefully aspirated from the apparatus by disconnecting constituent parts. The apparatus was flushed with clean air (charcoal filters only) for 5 minutes before the next batch of stimuli was introduced.
A total of 10 replicates (different batches of mosquitoes) were run for each stimuli assessment. Treatment and control arms were alternated between replicates. After completion of 10 replicates, the apparatus was rinsed in acetone and allowed to dry overnight.
Once the range of doses that “activated” mosquitoes had been established, the capacity of those concentrations to initiate a directional response was tested. In this instance, experiments were conducted in comparison to a positive control of CO2/1-octen-3-ol [[…]]. […] A positive control was used to assess whether test stimuli were at least as attractive as a standard directional stimulus.

Anopheles stephensi [8] = assay: Y-tube olfactometer, measurement of activation against clean air; type: in vivo; settings: for Activation (against clean air): An. stephensi females
Protocol: A y-tube olfactometer was used to establish whether the volatile components of human breath elicited behavioural responses in the malaria vector Anopheles stephensi. The MR4 strain of An. stephensi (New Delhi, India) was maintained at 27° C., 70% RH, 12:12 L:D and 30 min dawn/dusk periods). 4 to 7 day old female mosquitoes, that had never received a blood meal, were used in experiments. Mosquitoes were maintained on 10% sugar solution ad libitum but starved for 12 hr prior to testing. The Y tube olfactometer is made entirely of glass and consists of a release chamber, the Y tube itself, and a trap chamber attached to each arm (FIG. 1). Each trap chamber is divided in two by a fine glass filter. On the far side of those filters, the trap chambers can connect to charcoal filters or to gas bags or gas cylinders. Air is pulled through the olfactometer by connecting the release chamber to a vacuum tap which vents the contents of the tube. Standard air flow (0.4 L/minute) is maintained using a 0.1-1.2 LPM flow meter (John Morris Pty, LTD). The air volume of the Y-tube is approximately 1 litre and is therefore replaced every 2.5 minutes. One arm is attached to a gas bag of clean air (from a compressed air cylinder) […]. The other arm remains connected to a carbon filter and the air inlet to give a plume of compressed air plus test stimuli (i.e. standard air concentration of CO2 only). 1 μl 10^−2 to 10^−5% test stimuli in mineral oil (Sigma Aldrich) was spotted on 1 cm^2 Whatman filter paper. Test stimuli was delivered by placing treated filter paper between the air inlet and the trap chamber to give a plume of compressed air plus test stimuli (i.e. standard air concentration of CO2 only). All experiments were run under PC2 quarantine conditions, at 27° C., 70% RH, under infrared light. Observers were always in the same position during the tests, at the trap chamber end of the olfactometer, between the 2 arms of the Y tube. Using an aspirator, 25-30 starved female An. stephensi were introduced into the release chamber (FIG. 1). […] After each test, mosquitoes were carefully aspirated from the apparatus by disconnecting constituent parts. The apparatus was flushed with clean air (charcoal filters only) for 5 minutes before the next batch of stimuli was introduced. A total of 10 replicates (different batches of mosquitoes) were run for each stimuli assessment. Treatment and control arms were alternated between replicates. After completion of 10 replicates, the apparatus was rinsed in acetone and allowed to dry overnight. Initial experiments were therefore less concerned with directional responses and more with establishing the range of doses that appeared to cause some form of excitation. Those initial experiments were conducted in comparison to a neutral control (a negative would be repellent) of clean air drawn through a charcoal filter. The test stimuli were tested against mosquitoes at serial dilutions in the range 10^−2 to 10^−5%. Once mosquitoes had stopped responding, the numbers in the olfactometer arms, base leg and release chamber were counted. Mosquitoes were assumed to have been “activated” if they moved into the Y tube arms.

Total mosquito = assay: Field trial with CDC light traps, total mosquito catch; type: in vivo; settings: CO2 alone (1 kg dry ice); CDC light trap, one night; treatment per Table 3
Protocol: Field trials based on an imperfect Latin square design compared the attraction of An. farauti to MTPE with and without CO2. Treatments included CO2 alone, CO2 in combination with MTPE lure, or MTPE lure alone. Centres for Disease Control and Prevention (CDC) light traps were used to deliver MTPE lures and/or CO2. MTPE lures consisted of 500 μl of MTPE in mineral oil, 10-100,000 ppm spread on filter paper. MTPE/mineral oil mixtures were spread on filter paper, rolled into a tight wick, and inserted into a specimen tube. Specimen tubes where then wired to a CDC trap. CO2 was delivered using 1 kg dry ice, hung above a CDC light trap, as per standard sampling protocols. MTPE+/−CO2 combinations were randomised between 4 trap positions over three nights. Traps were placed at least 50 m apart to manage interference and were set between 5 pm and 7 am each night. Trap catches were subsequently returned to the laboratory, counted and identified as “Anopheles farauti s.l” or “other”.
As CO2 is a known mosquito attractant, all catches were compared to CO2 alone.

A. aegypti antennae = assay: Electroantennogram (EAG), non bloodfed females; set-up: species or system Aedes aegypti; settings: n=5
Protocol: as §1, §2, §5

[9] = dilution 0.0001 (10^-4)% in mineral oil
[10] = dilution 0.01 (10^-2)% in mineral oil

Compound: C=CC(O)CCCCC (stereo not shown) [1-octen-3-ol, reference compound]
- EAG response compared to mineral oil control [1]: significantly responding
- EAG response compared to mineral oil control [2]: significantly responded
- EPG response compared to mineral oil control [3]: did not
- EAG response [4]: significant EAG response
- EAG response, comparison among tested chemicals (C. annulirostis antennae): strongest response
- EAG response [5]: significant EAG response
- EPG response compared to mineral oil control [6]: did not

Compound: C=CCSC [AMS, Allyl methyl sulphide]
- EPG response compared to mineral oil control [3]: significant responses
- Attractiveness relative to 1-octen-3-ol/CO2 (Anopheles stephensi [7]; at 0.00001%): twice
- Attraction (against CO2 + 1-octen-3-ol) (Anopheles stephensi [7]; dilution 0.00001 (10^-5)%, An. stephensi females): Yes
- Concentration of greatest activation response (Anopheles stephensi [8]; against clean air, tested 10^-2 to 10^-5%): 0.00001 % v/v
- Activation (against clean air) (Anopheles stephensi [8]; dilution 0.00001 (10^-5)% in mineral oil): caused activation and Yes
- Activation (against clean air) (Anopheles stephensi [8]; [9]): Yes
- Activation (against clean air) (Anopheles stephensi [8]; [10]): Yes

Compound: O=C=O [CO2, carbon dioxide, reference compound]
- EPG response compared to mineral oil control [3]: significant responses
- Total mosquito catch numbers (Total mosquito): 206 and 233 and 298
- EPG response compared to mineral oil control [6]: significant responses

Compound: CSCCCO [MTPL, 3-methylthio-1-propanol]
- EPG response compared to mineral oil control [3]: did not
- Attractiveness relative to 1-octen-3-ol/CO2 (Anopheles stephensi [7]; at 0.01%): 1.5
- EAG response, comparison among tested chemicals (A. aegypti antennae): strongest response
- EAG response, comparison among tested chemicals (C. annulirostis antennae): strongest response
- Concentration range over which an activation response was initiated (Anopheles stephensi [8]; against clean air): 0.00001-0.01%
- Activation (against clean air) (Anopheles stephensi [8]; [9]): Yes
- Activation (against clean air) (Anopheles stephensi [8]; dilution 0.001 (10^-3)% in mineral oil): Yes
- Activation (against clean air) (Anopheles stephensi [8]; [10]): Yes
